Data: ChEMBL document CHEMBL5036303, “Cyclic Analogues of the Chemerin C-Terminus Mimic a Loop Conformation Essential for Activating the Chemokine-like Receptor 1” (J Med Chem, 2021)
Where a SMILES comes first, the peptide text is derived from it.

Assays:
[1] = Agonist activity at CMKL1 Y268L mutant (unknown origin) expressed in COS-7 cells assessed as increase in calcium flux measured for 40 sec by Fluo-2 AM dye based assay; type: cell-based
Chemerin-like receptor 1 [2] = molecular target: T1, Chemerin-like receptor 1 (Homo sapiens, UniProt Q99788); assay: Agonist activity at wild type CMKL1 (unknown origin) expressed in COS-7 cells assessed as increase in calcium flux measured for 40 sec by Fluo-2 AM dye based assay; type: functional, cell-based
T1 sequence (Q99788 whole entry): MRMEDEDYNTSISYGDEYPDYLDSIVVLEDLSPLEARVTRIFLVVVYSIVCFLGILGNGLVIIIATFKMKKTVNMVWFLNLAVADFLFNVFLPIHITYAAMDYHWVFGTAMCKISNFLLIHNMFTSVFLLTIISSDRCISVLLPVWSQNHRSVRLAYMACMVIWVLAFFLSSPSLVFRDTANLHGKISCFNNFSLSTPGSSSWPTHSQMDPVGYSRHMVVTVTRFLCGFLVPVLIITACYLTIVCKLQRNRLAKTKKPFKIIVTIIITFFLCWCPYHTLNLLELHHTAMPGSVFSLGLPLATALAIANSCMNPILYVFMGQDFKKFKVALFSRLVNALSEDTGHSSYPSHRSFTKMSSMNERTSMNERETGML

Chemerin-like receptor 1 [3] = molecular target: T1, Chemerin-like receptor 1; assay: Agonist activity at Wild type CMKL1 (unknown origin) expressed in COS-7 cells assessed as accumulation of inositol phosphate incubated for 3 hrs by liquid scintillation counting method; type: functional, cell-based
[4] = Agonist activity at CMKL1 F476A mutant (unknown origin) expressed in COS-7 cells assessed as accumulation of inositol phosphate incubated for 3 hrs by liquid scintillation counting method; type: cell-based; conditions: COS-7, 3 h
[5] = Agonist activity at CMKL1 F479A mutant (unknown origin) expressed in COS-7 cells assessed as increase in calcium flux measured for 40 sec by Fluo-2 AM dye based assay; type: cell-based
[6] = Agonist activity at CMKL1 F476A mutant (unknown origin) expressed in COS-7 cells assessed as increase in calcium flux measured for 40 sec by Fluo-2 AM dye based assay; type: cell-based
[7] = Agonist activity at CMKL1 E658A mutant (unknown origin) expressed in COS-7 cells assessed as increase in calcium flux measured for 40 sec by Fluo-2 AM dye based assay; type: cell-based
[8] = Agonist activity at CMKL1 Y263A mutant (unknown origin) expressed in COS-7 cells assessed as increase in calcium flux measured for 40 sec by Fluo-2 AM dye based assay; type: cell-based
[9] = Agonist activity at CMKL1 Y268A mutant (unknown origin) expressed in COS-7 cells assessed as increase in calcium flux measured for 40 sec by Fluo-2 AM dye based assay; type: cell-based
[10] = Agonist activity at CMKL1 E658A mutant (unknown origin) expressed in COS-7 cells assessed as accumulation of inositol phosphate incubated for 3 hrs by liquid scintillation counting method; type: cell-based; conditions: COS-7, 3 h
[11] = Agonist activity at CMKL1 F479A mutant (unknown origin) expressed in COS-7 cells assessed as accumulation of inositol phosphate incubated for 3 hrs by liquid scintillation counting method; type: cell-based; conditions: COS-7, 3 h

CC(C)C[C@H](NC(=O)[C@H](CCC(N)=O)NC(=O)CNC(=O)[C@@H]1CCCN1C(=O)[C@H](Cc1ccccc1)NC(=O)[C@@H](N)Cc1ccc(O)cc1)C(=O)N[C@@H](C)C(=O)N[C@@H](Cc1ccccc1)C(=O)N[C@@H](CO)C(=O)O
EC50 ([1]; read-out: EC50): > 1 µM
EC50 ([1]; read-out: pEC50 (converted)): > 1 µM
EC50 (Chemerin-like receptor 1 [2]): 0.195 µM

C[C@H](NC(=O)[C@H](Cc1ccccc1)NC(=O)[C@H](CCC(N)=O)NC(=O)CNC(=O)[C@@H]1CCCN1C(=O)[C@H](Cc1ccccc1)NC(=O)[C@@H](N)Cc1ccc(O)cc1)C(=O)NCc1ccccc1
EC50 (Chemerin-like receptor 1 [2]): 0.032 µM

C[C@H](NC(=O)[C@H](Cc1ccccc1)NC(=O)[C@H](CCC(N)=O)NC(=O)CNC(=O)[C@@H]1CCCN1C(=O)[C@H](Cc1ccccc1)NC(=O)[C@@H](N)Cc1ccc(O)cc1)C(=O)N[C@@H](Cc1ccccc1)C(=O)O (H-YFPGQFAF-OH)
EC50 (Chemerin-like receptor 1 [2]): 0.02 µM

C[C@@H]1NC(=O)[C@H](Cc2ccccc2)NC(=O)[C@H](CCC(N)=O)NC(=O)[C@@H](NC(=O)[C@@H]2CCCN2C(=O)[C@H](Cc2ccccc2)NC(=O)[C@@H](N)Cc2ccc(O)cc2)CSSC[C@@H](C(=O)O)NC(=O)[C@H](Cc2ccccc2)NC1=O (HELM PEPTIDE1{Y.F.P.C.Q.F.A.F.C}$PEPTIDE1,PEPTIDE1,4:R3-9:R3$$$V2.0)
EC50 (Chemerin-like receptor 1 [3]): 0.15 µM
EC50 (Chemerin-like receptor 1 [2]): 0.064 µM

C[C@@H]1NC(=O)[C@H](Cc2ccccc2)NC(=O)[C@H](CCC(N)=O)NC(=O)[C@H](NC(=O)[C@@H]2CCCN2C(=O)[C@H](Cc2ccccc2)NC(=O)[C@@H](N)Cc2ccc(O)cc2)CCSSC[C@@H](C(=O)O)NC(=O)[C@H](Cc2ccccc2)NC1=O (HELM PEPTIDE1{Y.F.P.[O=C([C@@H](CCS[*:3])N[*:1])[*:2]].Q.F.A.F.C}$PEPTIDE1,PEPTIDE1,4:R3-9:R3$$$V2.0)
EC50 [4]: 3.89 µM
EC50 ([5]; read-out: EC50): > 1 µM
EC50 ([5]; read-out: pEC50 (converted)): > 1 µM
EC50 ([6]; read-out: EC50): 0.085 µM
EC50 ([6]; read-out: pEC50 (converted)): 0.0851 µM
EC50 ([7]; read-out: EC50): > 1 µM
EC50 ([7]; read-out: pEC50 (converted)): > 1 µM
EC50 ([8]; read-out: EC50): 0.197 µM
EC50 ([8]; read-out: pEC50 (converted)): 0.2 µM
EC50 ([9]; read-out: EC50): > 1 µM
EC50 ([9]; read-out: pEC50 (converted)): > 1 µM
EC50 ([10]; read-out: EC50): > 10 µM
EC50 ([10]; read-out: pEC50 (converted)): > 10 µM
EC50 [11]: > 10 µM
